Columns and labels:
giant foxtail = assay: Test B pre/postemergence giant foxtail; type: in vivo, Setaria faberii
Procedure, shortened: (§1)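 Response is a visual 0-to-10 score relative to untreated plants, where 0 means no effect and 10 means complete control, taken twelve to sixteen days after application. Treatments went onto soil at planting and onto foliage of 1- to 4-leaf plants, using a surfactant-containing non-phytotoxic solvent.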

rape = assay: Test B pre/postemergence rape; type: in vivo, Brassica napus
Procedure, shortened: as §1

crabgrass = assay: Test B pre/postemergence crabgrass; type: in vivo, Digitaria sanguinalis
Procedure, shortened: as §1

cocklebur = assay: Test B pre/postemergence cocklebur; type: in vivo, Xanthium strumarium
Procedure, shortened: as §1

wheat = assay: Test B pre/postemergence wheat; type: in vivo, Triticum aestivum
Procedure, shortened: as §1

morningglory = assay: Test B pre/postemergence morningglory; type: in vivo, Ipomoea hederacea
Procedure, shortened: as §1

surinam grass = assay: Test B pre/postemergence surinam grass; type: in vivo, Brachiaria decumbens
Procedure, shortened: as §1

sugar beet = assay: Test B pre/postemergence sugar beet; type: in vivo, Beta vulgaris
Procedure, shortened: as §1

corn = assay: Test B pre/postemergence corn; type: in vivo, Zea mays
Procedure, shortened: as §1

pigweed = assay: Test B pre/postemergence pigweed; type: in vivo, Amaranthus retroflexus
Procedure, shortened: as §1

rice = assay: Test B flood test rice; type: in vivo, Oryza sativa
Procedure, shortened: (§2)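 Plants were grown to the 2-leaf stage before treatment with test chemical, then held in a greenhouse for twelve to sixteen days. Injury was visually rated against untreated controls on a 0–10 scale, where 0 is no effect and 10 is complete control.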

purple nutsedge = assay: Test B pre/postemergence purple nutsedge; type: in vivo, Cyperus rotundus
Procedure, shortened: as §1

bedstraw = assay: Test B pre/postemergence bedstraw; type: in vivo, Galium aparine
Procedure, shortened: as §1

bamyardgrass = assay: Test B flood test barnyardgrass; type: in vivo, Echinochloa crus-galli
Procedure, shortened: as §2

wild oat = assay: Test B pre/postemergence wild oat; type: in vivo, Avena fatua
Procedure, shortened: as §1

blackgrass = assay: Test B pre/postemergence blackgrass; type: in vivo, Alopecurus myosuroides
Procedure, shortened: as §1

[1] = Postemergence, Rate 62 g/ha, scale 0 to 10, 0 is no effect, 10 is complete control
[2] = Postemergence, Rate 125 g/ha, scale of 0 to 10 where 0 is no effect and 10 is complete control
[3] = Postemergence, Rate 250 g/ha, scale of 0 to 10, 0 is no effect, 10 is complete control
[4] = Postemergence, Rate 500 g/ha, scale of 0 to 10 where 0 is no effect and 10 is complete control
[5] = Preemergence, Rate 62 g/ha, scale 0 to 10 (0 no effect, 10 complete control)
[6] = Preemergence, Rate 125 g/ha, scale of 0 to 10 where 0 is no effect and 10 is complete control
[7] = Preemergence, Rate 250 g/ha, scale 0 to 10 (0 no effect, 10 complete control)
[8] = Preemergence, Rate 500 g/ha, scale of 0 to 10 where 0 is no effect and 10 is complete control
[9] = Rate 62 g/ha, flood test species, Pre-emergence, visual evaluation after twelve to sixteen days
[10] = Rate 125 g/ha, under heading Pre-emergence, flood test species, visual evaluation after twelve to sixteen days
[11] = Rate 250 g/ha, Pre-emergence (flood test species), scale 0 to 10, 0 is no effect, 10 is complete control
[12] = Rate 500 g/ha, Pre-emergence section of Table B, 0 to 10 scale (0 no effect, 10 complete control)

CCOC(Cn1c(=O)on(C(=O)N(c2ccc(F)cc2F)C(C)C)c1=O)OCC [Compound 630]
4: Plant response rating, Rape (rape; [4]) | Plant response rating, Morningglory (morningglory; [4]) | Sugarbeets plant response rating (sugar beet; [6]) | Plant response rating, Sugarbeets (sugar beet; [7])
10: Giant foxtail plant response rating (giant foxtail; [6]) | Plant response rating, Giant foxtail (giant foxtail; [7]) | Plant response rating, Giant foxtail (giant foxtail; [8]) | Plant response rating, Redroot pigweed (pigweed; [7]) | Plant response rating, Redroot pigweed (pigweed; [8]) | Plant response rating, Blackgrass (blackgrass; [8])
9: Plant response rating, Giant foxtail (giant foxtail; [4]) | Giant foxtail plant response rating (giant foxtail; [5]) | Plant response rating, Crabgrass (crabgrass; [7]) | Plant response rating, Crabgrass (crabgrass; [8]) | Redroot pigweed plant response rating (pigweed; [6]) | Plant response rating, Blackgrass (blackgrass; [4])
7: Plant response rating, Giant foxtail (giant foxtail; [2]) | Crabgrass plant response rating (crabgrass; [5]) | Plant response rating, B. signalgrass (surinam grass; [7]) | Plant response rating, Sugarbeets (sugar beet; [8]) | Plant response rating, Bedstraw (bedstraw; [8])
8: Giant foxtail plant response rating (giant foxtail; [3]) | Crabgrass plant response rating (crabgrass; [3]) | Crabgrass plant response rating (crabgrass; [6]) | Plant response rating, Wheat (wheat; [8]) | Plant response rating, B. signalgrass (surinam grass; [8]) | Plant response rating, Wild oats (wild oat; [7]) | Plant response rating, Wild oats (wild oat; [8]) | Blackgrass plant response rating (blackgrass; [6]) | Plant response rating, Blackgrass (blackgrass; [7])
2: Plant response rating, Giant foxtail (giant foxtail; [1]) | Plant response rating, Morningglory (morningglory; [2]) | Morningglory plant response rating (morningglory; [3]) | Plant response rating, Morningglory (morningglory; [8]) | Corn plant response rating (corn; [3]) | Redroot pigweed plant response rating (pigweed; [5])
1: Plant response rating, Crabgrass (crabgrass; [1]) | Plant response rating, Morningglory (morningglory; [1]) | B. signalgrass plant response rating (surinam grass; [3]) | Redroot pigweed plant response rating (pigweed; [3])
0: Plant response rating, Rape (rape; [1]) | Plant response rating, Rape (rape; [2]) | Rape plant response rating (rape; [3]) | Rape plant response rating (rape; [5]) | Rape plant response rating (rape; [6]) | Plant response rating, Rape (rape; [7]) | Plant response rating, Rape (rape; [8]) | Plant response rating, Cocklebur (cocklebur; [1]) | Plant response rating, Cocklebur (cocklebur; [2]) | Cocklebur plant response rating (cocklebur; [3]) | Plant response rating, Cocklebur (cocklebur; [4]) | Cocklebur plant response rating (cocklebur; [5]) | Cocklebur plant response rating (cocklebur; [6]) | Plant response rating, Cocklebur (cocklebur; [8]) | Plant response rating, Wheat (wheat; [1]) | Plant response rating, Wheat (wheat; [2]) | Wheat plant response rating (wheat; [3]) | Wheat plant response rating (wheat; [5]) | Wheat plant response rating (wheat; [6]) | Morningglory plant response rating (morningglory; [5]) | Morningglory plant response rating (morningglory; [6]) | Plant response rating, Morningglory (morningglory; [7]) | Plant response rating, B. signalgrass (surinam grass; [1]) | Plant response rating, B. signalgrass (surinam grass; [2]) | B. signalgrass plant response rating (surinam grass; [5]) | Plant response rating, Sugarbeets (sugar beet; [1]) | Plant response rating, Sugarbeets (sugar beet; [2]) | Sugarbeets plant response rating (sugar beet; [3]) | Sugarbeets plant response rating (sugar beet; [5]) | Plant response rating, Corn (corn; [1]) | Plant response rating, Corn (corn; [2]) | Corn plant response rating (corn; [5]) | Corn plant response rating (corn; [6]) | Plant response rating, Redroot pigweed (pigweed; [1]) | Plant response rating, Redroot pigweed (pigweed; [2]) | Plant response rating, Rice (0 to 10 scale, 0 is no effect, 10 is complete control) (rice; [9]) | Rice plant response rating (0 to 10 scale, 0 is no effect, 10 is complete control) (rice; [10]) | Rice plant response rating (rice; [11]) | Rice plant response rating (rice; [12]) | Plant response rating, Nutsedge (purple nutsedge; [1]) | Plant response rating, Nutsedge (purple nutsedge; [2]) | Plant response rating, Nutsedge (purple nutsedge; [4]) | Nutsedge plant response rating (purple nutsedge; [5]) | Nutsedge plant response rating (purple nutsedge; [6]) | Plant response rating, Nutsedge (purple nutsedge; [7]) | Plant response rating, Bedstraw (bedstraw; [1]) | Bedstraw plant response rating (bedstraw; [5]) | Bedstraw plant response rating (bedstraw; [6]) | Plant response rating, Bedstraw (bedstraw; [7]) | Plant response rating, Barnyardgrass (0 to 10 scale, 0 is no effect, 10 is complete control) (bamyardgrass; [9]) | Barnyardgrass plant response rating (0 to 10 scale, 0 is no effect, 10 is complete control) (bamyardgrass; [10]) | Barnyardgrass plant response rating (bamyardgrass; [11]) | Barnyardgrass plant response rating (bamyardgrass; [12]) | Plant response rating, Wild oats (wild oat; [1]) | Plant response rating, Wild oats (wild oat; [2]) | Wild oats plant response rating (wild oat; [3]) | Wild oats plant response rating (wild oat; [5]) | Plant response rating, Blackgrass (blackgrass; [1]) | Plant response rating, Blackgrass (blackgrass; [2])
3: Plant response rating, Wheat (wheat; [7]) | Plant response rating, B. signalgrass (surinam grass; [4]) | B. signalgrass plant response rating (surinam grass; [6]) | Plant response rating, Corn (corn; [7]) | Plant response rating, Nutsedge (purple nutsedge; [8]) | Wild oats plant response rating (wild oat; [6]) | Blackgrass plant response rating (blackgrass; [3])
5: Plant response rating, Crabgrass (crabgrass; [2]) | Plant response rating, Corn (corn; [4]) | Plant response rating, Corn (corn; [8]) | Blackgrass plant response rating (blackgrass; [5])

Reference: patent US6737383B1, “Herbicidal oxadiazolidines” (priority 1999, dated 2004)
